Test results as given in patent publication US20120328605A1, “COMPOSITIONS AND USES” (priority 2010, published 2012).
Entries after “also recorded” stand apart in the source; their conditions may differ.

How the values were obtained:
APPSwe/PS1 mice = assay: T-water maze; format: in vivo
Procedure: Five groups of APPSwe/PS1 mice received one a week for a period of 12 weeks the following treatment: • Gr1: APPSwe/PS1+NaCl 0.9% n(=20), i.p. injections • Gr4: APPSwe/PS1+CRX527 (20 μg/mouse, 130 μl, n=10), i.p. injections • Gr5: […] (50 μg/mouse, 130 μl, n=10), i.p. injections • Gr8 APPSwe/PS1+AS15 ( 1/10th of human dose, 50 μl, n=10), i.m. injections • Gr9: APPSwe/PS1+AS01B ( 1/10th of human dose, 50 μl, n=10), i.m. injections
Mice were tested during the “light on” phase of the day. Behavioral experimenter was blinded to the genetic and treatment status of animals. To assess hippocampal-dependent spatial learning and memory, mice were trained in the T-water maze task. In this paradigm, we evaluate the mouse's ability to remember the spatial location of submerged platform. The T-maze apparatus (length of stem, 64 cm; length of arms, 30 cm; width, 12 cm; height of walls, 16 cm) was made of clear fiberglass and filled with water (23±1° C.) at a height of 12 cm. A platform (11×11 cm) was placed at the end of the target arm and was submerged 1 cm below the surface. The acquisition phase allows to evaluate animals for left-right spatial learning. During the first two trials, platforms were placed on each arms of the maze to test the spontaneous turning preference of the mouse. After these two trials, the least chosen arm was reinforced by the escape platform. The mice were placed in the stem of the T-maze and choose to swim either left or right until they found the submerged platform and escape to it, to a maximum of 60 s. After reaching the platform, the mice remained on it for 20 s and then were immediately placed back in the maze. […] Repeated trials were presented on the same day up to a maximum of 48 trials. A rest period of at least 10-15 min intervened between each block of 10 trials. A mouse was considered to have learned the task when it made no errors in a block of five consecutive trials. […] The number of trials to reach the criterion (five of five correct choices made on consecutive trials) was measured as well as the latency to find the escape platform.

CD11b+ monocytes = assay: In vivo uptake assay of Aβ42 after immunization or passive immunotherapy; design: species or system C57BL/6 mice; antibody-mediated Aβ peripheral uptake: dose or concentration left out as unconfirmed; conditions: FIG. 22
Procedure: Mice: C57BL/6 female mice were purchased from Charles River. […]
[…] At day 22, 5 μg per mouse of fluorescent HiLyte Fluor™ 488-labeled Amyloid β 1-42 (Anaspec, Fremont, Calif.) was injected in the tail vein. Preparation of cells: Peripheral blood was drawn from immunized C57BL/6 mice via cardiac puncture with lithium-heparin as anticoagulant, 2 hours after i.v. injection of the Aβ1-42 HiLyte Fluor™ 488 (Day 22). Plasma of pooled blood was decanted and saved for measurement of antibody titres by ELISA. Red blood cell lysis was performed twice with Ammonium Chloride-based Buffer (Sigma, Steinheim, Germany) and cells were counted with the EasyCount™ System (Immunicon).
FACS analysis: 500,000 cells were aliquoted in a 96-well plate, washed once, incubated for 10 min. on ice in the presence of Rat anti-Mouse CD16/CD32 (clone 2.4G2-BD Fc Block™) and further stained for 30 min. with a combination of the following directly conjugated antibodies at their pre-determined optimal concentration: PE-Hamster anti-Mouse CD3 (clone 145-2C11), Rat anti-Mouse CD45R/B220 (clone RA3-6B2), Rat anti-Mouse Ly-6G (clone 1A8), Mouse anti-Mouse NK1.1 (clone PK136), APC-conjugated Rat anti-Mouse CD11b (clone M1/70), PE-Cy7-conjugated Hamster anti-Mouse CD11c (clone HL3), (all from BD PharMingen). Cells were finally washed twice and fixed for 15 min. with a 2% paraformaldehyde solution in PBS. […]

CCCCCCCCCCC[C@H](CC(=O)N[C@H]1[C@H](OC[C@H](NC(=O)C[C@@H](CCCCCCCCCCC)OCCCCCCCCCC)C(=O)O)O[C@H](CO)[C@@H](OP(=O)(O)O)[C@@H]1OC(=O)C[C@@H](CCCCCCCCCCC)OCCCCCCCCCC)OCCCCCCCCCC [CRX601]
behaviour as assessed by T water maze testing (APPSwe/PS1 mice; Example 21: twelve weekly injections, CRX527, CRX601 20 μg i.p., 3D MPL 50 μg i.p., AS01B 1/10th human dose i.m., FIG. 24): significant improvements in behaviour | cognitive functions, T-water maze vs PBS-treated control group (APPSwe/PS1 mice; Example 22, i.m. 12× weekly: CRX601 2 μg, CRX601 2 ug in AS03, 3D MPL 5 ug, AS01B 1/10 human dose, unpaired t-tests, FIG. 27A): significant improvement of their cognitive functions | antibody-mediated Aβ uptake, effect of CRX601 when combined with AS03 emulsion (CD11b+ monocytes; CRX601 20 ug with AS03): partially quenched | antibody-mediated Aβ peripheral uptake (CD11b+ monocytes; single i.m. injection, 24 hrs, Aβ Fluor i.v., 2 hrs): highest Aβ uptake; also recorded: Dose-response observed
